Data: US6913708B2, “Cholesteric liquid crystal drying process and solvent” (3M Innovative Properties Company, priority 2003, dated 2005)

Experiment: Solubility of cholesteric liquid crystal monomer in hot (boiling) solvents
Format: physicochemical
Experimental: Comparison of the Solubility of Various Monomers in 1,3-dioxolane and other Solvents.
4-(2-Acryloyloxy-ethoxy)-benzoic acid 4′-cyano-biphenyl-4-yl ester is a cholesteric liquid crystal monomer with the structure given below and can be prepared as described in European Patent Application Publication No. 834754, incorporated herein by reference. [drawing 2]
4-(2-Acryloyloxy-ethoxy)-benzoic acid 4′-cyano-biphenyl-4-yl ester was dissolved in hot (boiling) tetrahydrofuran and hot 1,3-dioxolane. Only 20% of the monomer dissolved in the tetrahydrofuran, while 40% dissolved in the 1,3-dioxolane.

## C=CC(=O)OCCOc1ccc(C(=O)Oc2ccc(-c3ccc(C#N)cc3)cc2)cc1 [4-(2-Acryloyloxy-ethoxy)-benzoic acid 4′-cyano-biphenyl-4-yl ester]
Hot 1,3-dioxolane
  fraction of the monomer dissolved: 40%
Hot (boiling) tetrahydrofuran
  fraction of the monomer dissolved: 20%
